Measurements as given in US20040115126A1, “Compositions and methods for the non-invasive detection of polypeptides in vivo” (The Regents of the University of Michigan, priority 2002, published 2004).

Columns and labels:
[1] = tested on: 9L gliosarcoma cells genetically engineered to stably express firefly luciferase (9LLuc); assay: BCNU chemotherapy of orthotopic 9L-Luc rat brain tumors, log cell kill from serial MRI and BLI; type: in vivo; settings: intracerebral 9LLuc tumor, treated 16 days after implantation, mean ±SEM, n=5
From the text: Current assessment of orthotopic tumor models in animals utilizes survival as the primary therapeutic endpoint. In vivo bioluminescence imaging ([…]) is a sensitive imaging modality that is rapid and accessible, and comprises an ideal tool for evaluating antineoplastic therapies. Using human tumor cell lines constitutively expressing luciferase, the kinetics of tumor growth and response to therapy have been assessed in intraperitoneal, subcutaneous and intravascular cancer models. […] Therefore, the ability of BLI to noninvasively quantitate the growth and therapeutic-induced cell kill of orthotopic rat brain tumors derived from 9L gliosarcoma cells genetically engineered to stably express firefly luciferase (9L^Luc) was investigated.
Intracerebral tumor burden was monitored over time by quantifying photon emission and tumor volume using a cryogenically-cooled CCD camera and magnetic resonance imaging (MRI), respectively. Excellent correlation (r=0.91) between detected photons and tumor volume was found.
FIGS. 5A-5O show a temporal analysis of the response of a 9L^Luc tumor to BCNU chemotherapy. […] Tumor volume was monitored with T2-weighted MRI (FIGS. 5A-5F) and infra-tumoral luciferase activity was monitored with BLI (FIGS. 5G-5L). […] Quantitative analysis of tumor progression and response to BCNU chemotherapy is shown by the graph FIG. 50. […]

[2] = tested on: D-54 cells expressing ER-Luc-ER caspase-3 reporter; assay: Western blot of caspase-3 reporter (ER-Luc-ER) cleavage in D-54 cells; type: cell-based; settings: various concentrations for 3 hrs
Protocol: FIG. 7 depicts a western blot showing induction of apoptosis. In D-54 cells, a caspase-3 reporter construct analogous to the one described in FIG. 6 except with ER domains as well as the caspase-3 cleavage sequence (DEVD) were present on the amino and carboxy termini (ER-Luc-ER) was used in the above studies. […] D-54 cells expressing this molecule were treated with TRAIL (TNF-related apoptosis inducing ligand) at various concentrations for 3 hrs.

[3] = tested on: D-54 derived stable cell line expressing a caspase-3 reporter molecule; assay: Non-invasive bioluminescence imaging of apoptosis in D-54 caspase-3 reporter tumors in nude mice; type: in vivo; settings: 50 ug intratumorally, s.q. D-54 reporter tumors in nude mice, IVIS imaging after luciferin
From the text: FIG. 6 depicts one strategy for imaging apoptosis. In this example, an estrogen regulatory domain results in silencing of luciferase due to sequestration. Activation of caspase-3 during apoptosis results in cleavage at the DEVD site, thus, releasing luciferase from the silencing effects of the estrogen regulatory domain. The free luciferase can, in the presence of luciferin, generate bioluminescense which can be imaged in vitro or in vivo using a Xenogen camera system.
FIGS. 8A and 8B depict non-invasive imaging of apoptosis. D-54 derived stable cell line expressing a caspase-3 reporter molecule similar to that described in FIG. 6 was implanted s.q. into nude mice. When the tumors reached a palpatable size they were treated with vector only (PBS, Panel A) or with 50 ug of TRAIL intratumoraly (panel B). Bioluminescent activity within the tumor was then measured after injection of luciferin using a IVIS imaging system.

| Molecule | Log cell kill calculated using BLI ([1]; BLI photon emission) | Log cell kill calculated using MRI ([1]; T2-weighted MRI tumor volume) | cleavage of ER-Luc-ER reporter (luciferase specific antibody western blot) [2] | increase in bioluminescence compared to the vector control [3] |
| --- | --- | --- | --- | --- |
| O=NN(CCCl)C(=O)NCCCl [BCNU, 1,3-bis(2-chloroethyl)-1 nitrosourea] | 1.84±0.73 | 1.78±0.36 |  |  |
| TRAIL: TNF-related apoptosis inducing ligand (protein, UniProt P50591 1-281, looked up) Tumor necrosis factor ligand …: MAMMEVQGGPSLGQTCVLIVIFTVLLQSLCVAVTYVYFTNELKQMQDKYSKSGIACFLKEDDSYWDPNDEESMNSPCWQVKWQLRQLVRKMILRTSEETISTVQEKQQNISPLVRERGPQRVAAHITGTRGRSNTLSSPNSKNEKALGRKINSWESSRSGHSFLSNLHLRNGELVIHEKGFYYIYSQTYFRFQEEIKENTKNDKQMVQYIYKYTSYPDPILLMKSARNSCWSKDAEYGLYSIYQGGIFELKENDRIFVSVTNEHLIDMDHEASFFGAFLVG |  |  | cleaved to a 90 kD molecule (ER-Luc) and subsequently to Luc (60 kD) | 2-3 × |
